Data taken from patent US11214594B2, “Antimicrobial peptide having synergistic antibacterial effect with antibiotics on multidrug resistant bacteria, and use thereof” (priority 2016, dated 2022).
Read-outs that look alike come from different tables or passages of the source. Where a SMILES comes first, the peptide text is derived from it. [ ]: non-standard residue; d: D form.

Key:
A. baumannii [1] = assay: MIC of antibiotic during combined treatment with antimicrobial peptide; type: cell-based, Acinetobacter baumannii; conditions: A. baumannii
Outline: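 Using MH broth, we determined combination MICs by titrating the antibiotic into wells and then repeating under the reverse dilution scheme.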

E. coli = type: cell-based, Escherichia coli; conditions: E. coli
Outline: (§1)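 Broth microdilution in MH medium; strains were diluted to 2×10^6 CFU per ml before plating. Peptide was serially diluted stepwise at 2:1 starting from its MIC, and MH-diluted antibiotic was then added to determine MIC. The reversed arrangement was also tested.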

MDREC 1229 = type: cell-based, Escherichia coli
Outline: as §1

A. baumannii [2] = assay: MIC of antimicrobial peptide during combined treatment with antibiotic; type: cell-based, Acinetobacter baumannii
Outline: as §1

MDRAB 12035 = assay: as above; type: cell-based, Acinetobacter baumannii
Outline: as §1

[3] = combined with peptide at 2 μg/ml
[4] = combined with peptide at 4 μg/ml
[5] = combined with peptide at 6 μg/ml
[6] = combined with peptide at 8 μg/ml
[7] = combined with peptide at 16 μg/ml
[8] = combined with peptide at 32 μg/ml
[9] = combined with peptide at 64 μg/ml
[10] = linezolid 64 μg/ml (Conc./MIC 1/8)
[11] = linezolid 512 μg/ml (Conc./MIC 1)
[12] = vancomycin 512 μg/ml (Conc./MIC 1/2)
[13] = vancomycin 1024 μg/ml (Conc./MIC 1)
[14] = erythromycin 4 μg/ml (Conc./MIC 1/8)
[15] = erythromycin 8 μg/ml (Conc./MIC 1/4)
[16] = erythromycin 16 μg/ml (Conc./MIC 1/2)
[17] = erythromycin 32 μg/ml (Conc./MIC 1)

CC[C@H](C)[C@H](NC(=O)[C@H](CCCCN)NC(=O)[C@H](Cc1c[nH]c2ccccc12)NC(=O)[C@@H](N)CCCNC(=N)N)C(=O)N[C@@H](Cc1ccccc1)C(=O)N[C@@H](CCCCN)C(=O)N[C@@H](CCCCN)C(=O)N[C@H](C(=O)N[C@H](CC(C)C)C(=O)N[C@@H](CCCCN)C(=O)N[C@@H](CC(C)C)C(=O)N[C@@H](CC(C)C)C(=O)N[C@@H](Cc1c[nH]cn1)C(=O)N[C@@H](CCC(=O)O)C(=O)N[C@@H](C)C(=O)N[C@@H](CCCCN)C(=O)N[C@@H](CCCCN)C(=O)N[C@@H](Cc1c[nH]c2ccccc12)C(N)=O)[C@@H](C)CC [PapMA-24, RWK IFK KIl KLL HEA KKW-NH2] (H-RWKIFKKI[dL]KLLHEAKKW-NH2; N-terminus assumed)
0.5 µg/mL: Antibiotic MIC, Erythromycin (A. baumannii [1]; [6]) | Peptide MIC during treatment with vancomycin (A. baumannii [2]; vancomycin […] (Conc./MIC 1/4))
16 µg/mL: Antibiotic MIC, Vancomycin (A. baumannii [1]; [5])
1 µg/mL: Peptide MIC during treatment with antibiotic (MDREC 1229; erythromycin […] (Conc./MIC 1/2)) | Peptide MIC during treatment with antibiotic (MDREC 1229; linezolid […] (Conc./MIC 1/2)) | Peptide MIC during treatment with antibiotic (MDREC 1229; [13]) | Peptide MIC during treatment with linezolid (A. baumannii [2]; linezolid […] (Conc./MIC 1/2)) | Peptide MIC during treatment with linezolid (MDRAB 12035; linezolid […] (Conc./MIC 1/2)) | Peptide MIC during treatment with vancomycin (MDRAB 12035; [13])
>128 µg/mL: Antibiotic MIC, Linezolid (A. baumannii [1]; [3])
2 µg/mL: Antibiotic MIC, Erythromycin (A. baumannii [1]; [5]) | Peptide MIC during treatment with antibiotic (MDREC 1229; erythromycin 64 μg/ml (Conc./MIC 1/4)) | Peptide MIC during treatment with antibiotic (MDREC 1229; linezolid […] (Conc./MIC 1/4)) | Peptide MIC during treatment with antibiotic (MDREC 1229; [12]) | Peptide MIC during treatment with vancomycin (A. baumannii [2]; vancomycin […] (Conc./MIC 1/8)) | Peptide MIC during treatment with vancomycin (MDRAB 12035; [12])
4 µg/mL: Antibiotic MIC, Linezolid (A. baumannii [1]; [6]) | Peptide MIC during treatment with antibiotic (MDREC 1229; erythromycin 32 μg/ml (Conc./MIC 1/8)) | Peptide MIC during treatment with antibiotic (MDREC 1229; [10]) | Peptide MIC during treatment with antibiotic (MDREC 1229; vancomycin […] (Conc./MIC 1/4)) | Peptide MIC during treatment with erythromycin (A. baumannii [2]; [15]) | Peptide MIC during treatment with erythromycin (A. baumannii [2]; [16]) | Peptide MIC during treatment with linezolid (A. baumannii [2]; linezolid 64 μg/ml (Conc./MIC 1/4)) | Peptide MIC during treatment with erythromycin (MDRAB 12035; [16]) | Peptide MIC during treatment with linezolid (MDRAB 12035; [10]) | Peptide MIC during treatment with linezolid (MDRAB 12035; linezolid […] (Conc./MIC 1/4)) | Peptide MIC during treatment with vancomycin (MDRAB 12035; vancomycin […] (Conc./MIC 1/4)) | Peptide MIC during treatment with vancomycin (MDRAB 12035; vancomycin […] (Conc./MIC 1/8))
128 µg/mL: Antibiotic MIC, Vancomycin (A. baumannii [1]; [3])
8 µg/mL: Antibiotic MIC, Erythromycin (A. baumannii [1]; [4]) | Antibiotic MIC, Linezolid (A. baumannii [1]; [5]) | Antibiotic MIC, Vancomycin (A. baumannii [1]; [6]) | Peptide MIC during treatment with antibiotic (MDREC 1229; vancomycin […] (Conc./MIC 1/8)) | Peptide MIC during treatment with erythromycin (A. baumannii [2]; [14]) | Peptide MIC during treatment with linezolid (A. baumannii [2]; linezolid 32 μg/ml (Conc./MIC 1/8)) | Peptide MIC during treatment with erythromycin (MDRAB 12035; [14]) | Peptide MIC during treatment with erythromycin (MDRAB 12035; [15])
0.25 µg/mL: Peptide MIC during treatment with vancomycin (A. baumannii [2]; [12])
0 µg/mL: Antibiotic MIC, Erythromycin (A. baumannii [1]; [7]) | Antibiotic MIC, Linezolid (A. baumannii [1]; [7]) | Antibiotic MIC, Vancomycin (A. baumannii [1]; [7]) | Antibiotic MIC, Erythromycin (A. baumannii [1]; [8]) | Antibiotic MIC, Linezolid (A. baumannii [1]; [8]) | Antibiotic MIC, Vancomycin (A. baumannii [1]; [8]) | Antibiotic MIC, Erythromycin (A. baumannii [1]; [9]) | Antibiotic MIC, Linezolid (A. baumannii [1]; [9]) | Antibiotic MIC, Vancomycin (A. baumannii [1]; [9]) | Peptide MIC (E. coli; with Erythromycin […] (Conc./MIC 1)) | Peptide MIC (E. coli; with Linezolid […] (Conc./MIC 1)) | Peptide MIC (E. coli; with Vancomycin 1024 μg/ml (Conc./MIC 1)) | Peptide MIC during treatment with antibiotic (MDREC 1229; erythromycin […] (Conc./MIC 1)) | Peptide MIC during treatment with antibiotic (MDREC 1229; [11]) | Peptide MIC during treatment with erythromycin (A. baumannii [2]; [17]) | Peptide MIC during treatment with linezolid (A. baumannii [2]; linezolid […] (Conc./MIC 1)) | Peptide MIC during treatment with vancomycin (A. baumannii [2]; [13]) | Peptide MIC during treatment with erythromycin (MDRAB 12035; [17]) | Peptide MIC during treatment with linezolid (MDRAB 12035; [11])
64 µg/mL: Antibiotic MIC, Linezolid (A. baumannii [1]; [4]) | Antibiotic MIC, Vancomycin (A. baumannii [1]; [4])
